# From paper PMC7069944, “Amino acid levels determine metabolism and CYP450 function of hepatocytes and hepatoma cell lines” (Nature Communications, 2020)
# “And” between values parts separate entries of the source, which are not always exact repeats. Equal values may be shown once.
# Experiments:
# [1] = test system: HepG2; experiment: Repeated-exposure DILI training compounds, resazurin conversion, HepG2
# Outline: (§1)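 PSC-derived cells differentiated in 384-well format, plus HepG2 seeded at 40,000 cells/well, received drugs after 8 h of attachment; untreated wells served as negative controls. Viability was measured by resazurin conversion and related to therapeutic Cmax values.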
# [2] = test system: HLC; experiment: Repeated-exposure DILI training compounds, resazurin conversion, HLC
# Outline: as §1
# [3] = test system: HC3X; experiment: Repeated-exposure DILI training compounds, resazurin conversion, HC3X; conditions: for Resazurin conversion, repeated exposure (Supplementary Figure 7D): HC3X AAGLY D40
# Outline: as §1
# [4] = test system: HC6X; experiment: Repeated-exposure DILI training compounds, resazurin conversion, HC6X
# Outline: as §1
structure (smiles),measurement,setting,value
Cc1ccc(C(=O)c2cc(O)c(O)c([N+](=O)[O-])c2)cc1 [tolcapone],"Resazurin conversion, repeated exposure (Supplementary Figure 7D)","[1]; HepG2 AAGLY D30, 10 uM",106.6 and 108.2 and 105.6 and 120.1 and 84.5 and 128.6
same,"Resazurin conversion, repeated exposure (Supplementary Figure 7D)","[1]; HepG2 AAGLY D30, 30 uM",144.6 and 128.4 and 104.2 and 136.2 and 93.4 and 133.6
same,"Resazurin conversion, repeated exposure (Supplementary Figure 7D)","[1]; HepG2 AAGLY D30, 50 uM",126.9 and 134.9 and 97.9 and 148.8 and 105 and 143.9
same,"Resazurin conversion, repeated exposure (Supplementary Figure 7D)","[1]; HepG2 AAGLY D30, 300 uM",44.5 and 61.6 and 62 and 66.8 and 60.8 and 73.6
same,"Resazurin conversion, repeated exposure (Supplementary Figure 7D)","[1]; HepG2 AAGLY D30, 500 uM",48.7 and 42.4 and 39.6 and 41.5 and 43.3 and 45.5
same,"Resazurin conversion, repeated exposure (Supplementary Figure 7D)","[1]; HepG2 AAGLY D30, 1000 uM",27.5 and 27.3 and 26.8 and 27.1 and 27.8
same,"Resazurin conversion, repeated exposure (Supplementary Figure 7D)","[1]; HepG2 AAGLY D30, 2000 uM",22.7 and 22.5 and 22.2 and 22.1 and 22.4
same,"Resazurin conversion, repeated exposure (Supplementary Figure 7D)","[1]; HepG2 AAGLY D30, 4000 uM",15.8 and 14.5 and 14.4 and 13.5 and 14.3
same,"Resazurin conversion, repeated exposure (Supplementary Figure 7D)","[1]; HepG2 CTL D7, 10 uM",87 and 84.9 and 85.9 and 110.7 and 87.4 and 87.2
same,"Resazurin conversion, repeated exposure (Supplementary Figure 7D)","[1]; HepG2 CTL D7, 30 uM",113.4 and 88.9 and 98.2 and 86.8 and 100.5 and 86.2
same,"Resazurin conversion, repeated exposure (Supplementary Figure 7D)","[1]; HepG2 CTL D7, 300 uM",8.3 and 8 and 7.5 and 8.8 and 8.1
same,"Resazurin conversion, repeated exposure (Supplementary Figure 7D)","[1]; HepG2 CTL D7, 500 uM",7.3 and 6.8 and 6.5 and 6.6 and 6.7
same,"Resazurin conversion, repeated exposure (Supplementary Figure 7D)","[1]; HepG2 CTL D7, 1000 uM",6.4 and 5.9 and 5.8 and 5.6
same,"Resazurin conversion, repeated exposure (Supplementary Figure 7D)","[1]; HepG2 CTL D7, 2000 uM",4.8 and 4.4 and 4
same,"Resazurin conversion, repeated exposure (Supplementary Figure 7D)","[1]; HepG2 CTL D7, 4000 uM",2.3 and 2.5 and 2.2 and 2.1 and 2 and 2.6
same,"Resazurin conversion, repeated exposure (Supplementary Figure 7D)","[2]; HLC AAGLY D40, 10 uM",89.6 and 98.4 and 93.9 and 112.4 and 126.3 and 99.4
same,"Resazurin conversion, repeated exposure (Supplementary Figure 7D)","[2]; HLC AAGLY D40, 100 uM",143.7 and 88 and 126.1 and 79.6 and 153.9 and 130.7
same,"Resazurin conversion, repeated exposure (Supplementary Figure 7D)","[2]; HLC AAGLY D40, 500 uM",86.2 and 108.3 and 80.7 and 126.4 and 91.4 and 111.1
same,"Resazurin conversion, repeated exposure (Supplementary Figure 7D)","[2]; HLC AAGLY D40, 1000 uM",80.1 and 96.8 and 72.2 and 70.6 and 94.2 and 112.4
same,"Resazurin conversion, repeated exposure (Supplementary Figure 7D)","[2]; HLC LDM D40, 10 uM",110.5 and 107.3 and 79 and 94.2 and 118.4 and 85.4
same,"Resazurin conversion, repeated exposure (Supplementary Figure 7D)","[2]; HLC LDM D40, 50 uM",117.3 and 84.9 and 88.5 and 107.2 and 94.9 and 106
same,"Resazurin conversion, repeated exposure (Supplementary Figure 7D)","[2]; HLC LDM D40, 100 uM",136.2 and 145.5 and 129 and 115.8 and 107.1 and 144.8
same,"Resazurin conversion, repeated exposure (Supplementary Figure 7D)","[2]; HLC LDM D40, 500 uM",60.4 and 57.9 and 62.5 and 68.7 and 54 and 73.8
same,"Resazurin conversion, repeated exposure (Supplementary Figure 7D)","[2]; HLC LDM D40, 4000 uM",25.6 and 16.8 and 16.1 and 16 and 13.5 and 19.7
same,"Resazurin conversion, repeated exposure (Supplementary Figure 7D)",[3]; 10 uM,139.4 and 142.8 and 150.5 and 156.1 and 95.1 and 108.2
same,"Resazurin conversion, repeated exposure (Supplementary Figure 7D)",[3]; 30 uM,50.8 and 58.9 and 61.5 and 64.6 and 88.9 and 76.4
same,"Resazurin conversion, repeated exposure (Supplementary Figure 7D)",[3]; 300 uM,8.4 and 7.7 and 8 and 9.1 and 9.2
same,"Resazurin conversion, repeated exposure (Supplementary Figure 7D)",[3]; 500 uM,11.6 and 15.4 and 8.7 and 13.6 and 11.8 and 12.2
same,"Resazurin conversion, repeated exposure (Supplementary Figure 7D)",[3]; 1000 uM,6.7 and 6.6 and 6.4 and 6.5 and 7.5 and 9.6
same,"Resazurin conversion, repeated exposure (Supplementary Figure 7D)",[3]; 2000 uM,4.2 and 4.1 and 4.6
same,"Resazurin conversion, repeated exposure (Supplementary Figure 7D)",[3]; 4000 uM,3.1 and 3.3 and 3 and 3.2 and 3.4
same,IC50/Cmax,[3]; human,0.83
same,"Resazurin conversion, repeated exposure (Supplementary Figure 7D)","[4]; HC6X AAGLY D40, 10 uM",103.7 and 134.6 and 82 and 87 and 83.1 and 109.6
same,"Resazurin conversion, repeated exposure (Supplementary Figure 7D)","[4]; HC6X AAGLY D40, 30 uM",98.2 and 113.2 and 82.9 and 88.4 and 81.1 and 97.8
same,"Resazurin conversion, repeated exposure (Supplementary Figure 7D)","[4]; HC6X AAGLY D40, 100 uM",47.9 and 57 and 49.7 and 51.8 and 54.9 and 72.8
same,"Resazurin conversion, repeated exposure (Supplementary Figure 7D)","[4]; HC6X AAGLY D40, 300 uM",39.5 and 40.5 and 38.8 and 59.9 and 40.3 and 47.8
same,"Resazurin conversion, repeated exposure (Supplementary Figure 7D)","[4]; HC6X AAGLY D40, 500 uM",34.3 and 39.2 and 30.7 and 33.5 and 40.3 and 34.2
same,"Resazurin conversion, repeated exposure (Supplementary Figure 7D)","[4]; HC6X AAGLY D40, 1000 uM",31.1 and 26.7 and 26.3 and 27.6 and 26.5
same,"Resazurin conversion, repeated exposure (Supplementary Figure 7D)","[4]; HC6X AAGLY D40, 2000 uM",22.1 and 28.3 and 22.3 and 22.5 and 23 and 22.4
same,"Resazurin conversion, repeated exposure (Supplementary Figure 7D)","[4]; HC6X AAGLY D40, 4000 uM",17.8 and 17.3 and 16.6 and 16.3 and 16.4 and 16.8
same,"Resazurin conversion, repeated exposure (Supplementary Figure 7D)","[4]; HC6X AAGLY D40 Remove dox, 30 uM",108.6 and 121.2 and 103 and 112.9 and 119.8 and 93.5
same,"Resazurin conversion, repeated exposure (Supplementary Figure 7D)","[4]; HC6X AAGLY D40 Remove dox, 50 uM",77 and 153.8 and 144.7 and 105.2 and 81.9 and 88.4
same,"Resazurin conversion, repeated exposure (Supplementary Figure 7D)","[4]; HC6X AAGLY D40 Remove dox, 1000 uM",78.8 and 118 and 78.9 and 118.9 and 81.8 and 105.5
